Results reported in US3992533A, “O-ethyl-S-N-propyl-O-(2-chloro-4-bromophenyl)-thiophosphate” (priority 1971, dated 1976).
Read-outs that look alike come from different tables or passages of the source.

Experiments:
Tribolium confusum = test: Talcum dust on filter paper, dosage for 100% control within 24 hours; type: in vivo; details: 5% talcum dust on filter paper
Description: (§1) A dust on a base of talcum and containing 5% active ingredient was applied to filter paper in concentrations of 100, 50, 25, 12.5 6.2 and 3.1 mg of active substance per m^ 2. Onto each of the treated substrates were applied 5 Necrobia rufipes, Rhyzoperta dominica, Anthrenus vorax and Tribolium confusum individuals respectively. Evaluation took place 24 hours later. Test compounds were same as set forth in Example 2.

Anthrenus vorax = test: as above; type: in vivo; details: 5% talcum dust on filter paper
Description: as §1

Necrobia rufipes = test: as above; type: in vivo; details: 5% talcum dust on filter paper
Description: as §1

Rhyzoperta dominica = test: as above; type: in vivo; details: 5% talcum dust on filter paper
Description: as §1

Tetranychus urticae = test: Acaricidal action on Phaseolus vulgaris; type: in vivo; details: larvae, adults and eggs evaluated after 7 days; greenhouse 25° C
Description: The number of living and dead larvae, adults and eggs were evaluated after 7 days under a stereoscopic microscope and the result expressed in percentages. During the "interim", the treated plants were kept in greenhouse compartments at 25° C.

cotton pests = test: Comparison of activity with closest known compounds; type: in vivo; details: on at least the same toxicity level; especially initial effect towards cotton pests
[1] = Acute oral toxicity in rat; details: in vivo, per os
[2] = system: third instar larvae of Heliothis virescens; test: Insecticidal test on sprayed potted cotton and tobacco plants, initial and residual effect; type: in vivo
Description: Potted cotton and tobacco plants respectively were sprayed with 125 ppm of active ingredient in the form of an aqueous emulsion. After the coating had dried, the treated plants were infested with third instar larvae of Heliothis virescens. The tests were running under greenhouse conditions at 24° C and 60% relative humitidy. Assessments to evaluate the initial effect of the immediate acitivity of the active ingredient were carried out 4, 24 and 48 hours after the infestation of the plants with the pests. Assessments to evaluate the […] of the activity over a prolonged period of the active ingredient were carried out as follows: the coated test plants were infested with the test individuals 2 and 8 days respectively after the application of the active ingredient. Each test was checked after 4, 24 and 48 hours. Test compounds

[3] = 125 ppm aqueous emulsion, initial effect, assessment 4 h after infestation, 24° C, 60% relative humidity, read-out: % mortality, initial, 4 hours
[4] = 125 ppm, infested 2 days after application, assessment at 24 h, read-out: % mortality, residual 2d, 24 hours
[5] = 125 ppm, infested 2 days after application, assessment at 48 h, read-out: % mortality, residual 2d, 48 hours
[6] = 125 ppm, infested 8 days after application, assessment at 4 h, read-out: % mortality, residual 8d, 4 hours
[7] = 125 ppm, infested 8 days after application, assessment at 24 h, read-out: % mortality, residual 8d, 24 hours
[8] = 125 ppm, infested 8 days after application, assessment at 48 h, read-out: % mortality, residual 8d, 48 hours
[9] = 125 ppm, initial effect, assessment 24 h after infestation, read-out: % mortality, initial, 24 hours
[10] = 125 ppm, initial effect, assessment 48 h after infestation, read-out: % mortality, initial, 48 hours
[11] = 4 h, read-out: % mortality, residual 2d, 4 hours

Compound | Dosage needed which provides a 100% control within 24 hours (Tribolium confusum) | Dosage needed which provides a 100% control within 24 hours (Anthrenus vorax) | Dosage needed which provides a 100% control within 24 hours (Necrobia rufipes) | Dosage needed which provides a 100% control within 24 hours (Rhyzoperta dominica) | acaricidal activity (Tetranychus urticae) | activities versus the closest known compounds (cotton pests) | LD50 [1] | mortality at 125 ppm [2, 3] | mortality at 125 ppm ([2]; 125 ppm, infested 2 days after application, assessment at 4 h, read-out: % mortality, residual 2d, 4 hours) | mortality at 125 ppm [2, 4] | mortality at 125 ppm [2, 5] | mortality at 125 ppm [2, 6] | mortality at 125 ppm [2, 7] | mortality at 125 ppm [2, 8] | mortality at 125 ppm [2, 9] | mortality at 125 ppm [2, 10] | mortality at 125 ppm [2, 11]
CCCSP(=O)(OCC)Oc1ccc(Br)cc1Cl (centres unmarked) [I, O-ethyl-S-N-propyl-O-(2-chloro-4-bromophenyl)-thiophosphate] | 50 mg a.i./m^2 | 25 mg a.i./m^2 | 3.1 mg a.i./m^2 | 25 mg a.i./m^2 | good activity | surprisingly superior activities | 400 to 900 mg/kg | 100% | 100% | 100% | 100% | 50% | 100% | 100% | 100% | 100% | –
CCCSP(=O)(OCC)Oc1ccc(Cl)cc1Cl (centres unmarked) [II, O-ethyl-S-n-propyl-O-(2,4-dichlorophenyl)-thiophosphoric acid ester] | 100 mg a.i./m^2 | 50 mg a.i./m^2 | 6.2 mg a.i./m^2 | 50 mg a.i./m^2 | – | – | 400 mg/kg | 80% | – | 100% | 100% | 30% | 50% | 100% | 90% | 100% | 50%
CCCSP(=O)(OCC)Oc1ccc(Br)cc1Br (centres unmarked) [III, O-ethyl-S-n-propyl-O-(2,4-dibromophenyl)-thiophosphoric acid ester] | > 100 mg a.i./m^2 | 100 mg a.i./m^2 | 6.2 mg a.i./m^2 | 100 mg a.i./m^2 | – | – | 300 mg/kg | 75% | – | 100% | 100% | 0% | 5% | 55% | 100% | 100% | 30%
